Measured values as given in patent US20230413818A1, “FEED AND METHODS FOR CONTROLLING TICK INFESTATIONS IN A MAMMAL” (In the Bowl Animal Health, Inc., priority 2021, published 2023).

Legend:
[1] = tested on: Rhipicephalus sanguineus; assay: Efficacy of spinosyn administered per os to dogs for treatment and control of Rhipicephalus sanguineus (tick comb counts); assay type: in vivo; details: oral daily dose increased from 2.5 to 5.0 mg/kg/day around day 30, days 37-50, FIG. 1
From the text: Efficacy of Spinosyn Administered per os, i.e. by Mouth, to Dogs for the Treatment and Control of Rhipicephalus sanguineus.
(§1) Methods: A pool of 40 dogs are to be screened before inclusion in this example by preliminarily infesting them with ˜100 unfed adult Ctenocephalidesfelis in order to produce a pool of dogs that can suitably sustain a reliable infestation rate of approximately 50% of live fleas over a 48-hour period. The dogs with the highest live flea counts are to be randomly allocated to 2 treatment groups (6 dogs per group) based on their pre-treatment flea counts from experimental infestations. The first treatment group is to be the control group and the second treatment group to be the test group.
(§2) The dogs are to be housed individually during the study period and are to be fed a commercial dry dog food ration with ad libitum access to water.
(§3) Each dog in the test group is to receive by mouth a liquid formulation of spinosyn preferably spinosad. The dosage of 2.5 mg/kg of the dog's weight is to be administered to the dogs on each of days 0-29 and the dosage of 5 mg/kg of the dog's weight is to be administered on days 30-50.
Dogs in the control group are not to receive spinosyn or any other tick control treatment. […]
Results: Referring now to FIG. 1. […] Percent Efficacy is determined according to the formula [AM ticks CONTROL−AM ticks TREATED]/AM ticks Control. […]

[2] = Average plasma concentration of spinosad in dogs after oral dosing; assay type: in vivo
From the text: as §1, §2, §3
Dogs in the control group are not to receive spinosyn or any other tick control treatment. Each dog in the test group is to be offered its daily ration (dry food) and the individual doses of liquid formulation are to be administered after the individual dog has eaten at least 25% of its total daily ration. After receiving the dose of spinosyn the dogs are to be allowed to continue eating. This mimics incorporating the spinosyn in feed. Each dog in the test group and the control group is to be experimentally infested with 50 unfed adult ticks (ca. 50% male/50% female) on test days 12, 19, 28, 35, 42, 49 and 56. Comb counts for attached live and moribund adult ticks are to be conducted on days 14, 21, 30, 37, 44, 51 and 58. Note that the dosage is to be increased at day 30 and the final dose is to be given on day 50.
Using the same study method as described above, blood is to be drawn at 72, 120, 168, 336, 504, 720 and 888 hours after the initial dose of spinosyn is administered. The average concentration of spinosyn in the blood for different dosage levels can then be determined.
Referring now to TABLE 1 and FIG. 2. Sample results are shown for the average plasma concentration of spinosad in a canine's blood (ng/mL) versus time in hours for different dosage levels of spinosad. By way of comparison, the average plasma concentration of spinosyn for a single-dose administration to be given monthly (squares) is shown with the average plasma concentration of spinosyn for a substantially daily dose of 2.5 mg/kg/day or 5.0 mg/kg/day (circles). The daily dose is increased from 2.5 mg/kg/day to 5.0 mg/kg/day at about hour 700 (around day 30).

## spinosad
[1]
  Percent Efficacy (reduction in attached live and moribund adult tick counts vs control): increase in efficacy is clear
[2]; oral daily 2.5-5.0 mg/kg/day spinosad (2.5 mg/kg/day phase), 72 hours
  Average Plasma Concentration: 221.50 ng/mL
[2]; oral daily 2.5-5.0 mg/kg/day spinosad (2.5 mg/kg/day phase), 120 hours
  Average Plasma Concentration: 327.07 ng/mL
[2]; oral daily 2.5-5.0 mg/kg/day spinosad (2.5 mg/kg/day phase), 168 hours
  Average Plasma Concentration: 455.78 ng/mL
[2]; oral daily 2.5-5.0 mg/kg/day spinosad (2.5 mg/kg/day phase), 336 hours
  Average Plasma Concentration: 566.25 ng/mL
[2]; oral daily 2.5-5.0 mg/kg/day spinosad (2.5 mg/kg/day phase), 504 hours
  Average Plasma Concentration: 668.77 ng/mL
[2]; oral daily 2.5-5.0 mg/kg/day spinosad (5.0 mg/kg/day phase), 888 hours
  Average Plasma Concentration: 635.72 ng/mL
[2]; oral daily 2.5-5.0 mg/kg/day spinosad (5.0 mg/kg/day phase), 1056 hours
  Average Plasma Concentration: 967.33 ng/mL
[2]; oral daily 2.5-5.0 mg/kg/day spinosad (after final dose on day 50), 1392 hours
  Average Plasma Concentration: 761.45 ng/mL
[2]; oral daily 2.5-5.0 mg/kg/day spinosad (dose raised to 5.0 mg/kg/day at about hour 700), 720 hours
  Average Plasma Concentration: 533.12 ng/mL
